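These data come from cells grown in 96-well plates and exposed to compound for 48 hours at five concentrations. GI50 = concentration required for 50% inhibition of growth. The concentration for full growth arrest is given as TGI.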
Legend:
Test in all cases: NCI tumour cell line growth inhibition, 48 h
SNB-19 CNS = tested on: SNB-19 CNS
HCC-2998 colon = tested on: HCC-2998 colon
A498 renal = tested on: A498 renal
HCT-15 colon = tested on: HCT-15 colon
SN12C renal = tested on: SN12C renal
OVCAR-5 ovarian = tested on: OVCAR-5 ovarian
NCI-H460 lung = tested on: NCI-H460 lung
NCI-H23 lung = tested on: NCI-H23 lung
MALME-3M melanoma = tested on: MALME-3M melanoma
COLO 205 colon = tested on: COLO 205 colon
NCI-H522 lung = tested on: NCI-H522 lung
HT29 colon = tested on: HT29 colon
OVCAR-3 ovarian = tested on: OVCAR-3 ovarian
CCRF-CEM leukemia = tested on: CCRF-CEM leukemia
A549 NSCLC = tested on: A549 NSCLC
K-562 leukemia = tested on: K-562 leukemia
DU-145 prostate = tested on: DU-145 prostate
OVCAR-8 ovarian = tested on: OVCAR-8 ovarian
U251 CNS = tested on: U251 CNS
SR leukemia = tested on: SR leukemia
HCT-116 colon = tested on: HCT-116 colon
SNB-75 CNS = tested on: SNB-75 CNS
TK-10 renal = tested on: TK-10 renal
MDA-MB-231 breast = tested on: MDA-MB-231 breast
HOP-92 NSCLC = tested on: HOP-92 NSCLC
SK-MEL-28 melanoma = tested on: SK-MEL-28 melanoma
SF-539 CNS = tested on: SF-539 CNS
RPMI-8226 leukemia = tested on: RPMI-8226 leukemia
HOP-62 NSCLC = tested on: HOP-62 NSCLC
PC-3 prostate = tested on: PC-3 prostate
LOX IMVI melanoma = tested on: LOX IMVI melanoma
786-0 renal = tested on: 786-0 renal
CAKI-1 renal = tested on: CAKI-1 renal
MOLT-4 leukemia = tested on: MOLT-4 leukemia
BT-549 breast = tested on: BT-549 breast
M14 melanoma = tested on: M14 melanoma
MDA-N = tested on: MDA-N
SF-268 CNS = tested on: SF-268 CNS
SW-620 colon = tested on: SW-620 colon
MDA-MB-435 = tested on: MDA-MB-435
ACHN renal = tested on: ACHN renal
KM12 colon = tested on: KM12 colon
IGROV1 ovarian = tested on: IGROV1 ovarian
SF-295 CNS = tested on: SF-295 CNS
HL-60(TB) leukemia = tested on: HL-60(TB) leukemia
HS 578T breast = tested on: HS 578T breast
SK-MEL-2 melanoma = tested on: SK-MEL-2 melanoma
OVCAR-4 ovarian = tested on: OVCAR-4 ovarian
SK-MEL-5 melanoma = tested on: SK-MEL-5 melanoma
NCI/ADR-RES ovarian = tested on: NCI/ADR-RES ovarian
UACC-62 melanoma = tested on: UACC-62 melanoma
UACC-257 melanoma = tested on: UACC-257 melanoma
EKVX NSCLC = tested on: EKVX NSCLC
UO-31 renal = tested on: UO-31 renal

## COc1cc(CCN)c2c(c1OC)SSSSS2
SNB-19 CNS
  GI50: 2.45 µM
  TGI: 4.72 µM
HCC-2998 colon
  GI50: 0.384 µM
  TGI: 2.08 µM
A498 renal
  GI50: 1.98 µM
  TGI: 3.64 µM
HCT-15 colon
  GI50: 0.319 µM
  TGI: 1.44 µM
SN12C renal
  GI50: 1.13 µM
  TGI: 2.38 µM
OVCAR-5 ovarian
  GI50: 0.591 µM
  TGI: 1.48 µM
NCI-H460 lung
  GI50: 0.767 µM
  TGI: 2.11 µM
NCI-H23 lung
  GI50: 0.478 µM
  TGI: 1.79 µM
MALME-3M melanoma
  GI50: 2.08 µM
  TGI: 4.09 µM
COLO 205 colon
  GI50: 0.0184 µM
  TGI: 0.0783 µM
NCI-H522 lung
  GI50: 0.203 µM
  TGI: 0.849 µM
HT29 colon
  GI50: 0.34 µM
  TGI: 1.39 µM
OVCAR-3 ovarian
  GI50: 0.204 µM
  TGI: 0.538 µM
CCRF-CEM leukemia
  GI50: 0.395 µM
A549 NSCLC
  GI50: 1.38 µM
  TGI: 2.71 µM
K-562 leukemia
  GI50: 0.629 µM
  TGI: > 100 µM
DU-145 prostate
  GI50: 0.276 µM
  TGI: 1.22 µM
OVCAR-8 ovarian
  GI50: 1.22 µM
  TGI: 2.71 µM
U251 CNS
  GI50: 1.08 µM
  TGI: 2.46 µM
SR leukemia
  GI50: 0.113 µM
  TGI: 0.679 µM
HCT-116 colon
  GI50: 0.22 µM
SNB-75 CNS
  GI50: 1.5 µM
  TGI: 2.87 µM
TK-10 renal
  GI50: 1.42 µM
  TGI: 3.03 µM
MDA-MB-231 breast
  GI50: 1.49 µM
  TGI: 2.92 µM
HOP-92 NSCLC
  GI50: 1.42 µM
  TGI: 2.96 µM
SK-MEL-28 melanoma
  GI50: 1.79 µM
  TGI: 3.43 µM
SF-539 CNS
  GI50: 1.25 µM
  TGI: 2.62 µM
RPMI-8226 leukemia
  GI50: 0.287 µM
  TGI: 1.77 µM
HOP-62 NSCLC
  GI50: 1.81 µM
  TGI: 3.3 µM
PC-3 prostate
  GI50: 1.59 µM
  TGI: 2.93 µM
LOX IMVI melanoma
  GI50: 0.0127 µM
786-0 renal
  GI50: 1.04 µM
  TGI: 2.22 µM
CAKI-1 renal
  GI50: 0.503 µM
  TGI: 1.11 µM
MOLT-4 leukemia
  GI50: 0.0646 µM
  TGI: > 100 µM
BT-549 breast
  GI50: 0.793 µM
  TGI: 2.23 µM
M14 melanoma
  GI50: 0.085 µM
  TGI: 0.676 µM
MDA-N
  GI50: 0.706 µM
  TGI: 2.21 µM
SF-268 CNS
  GI50: 1.95 µM
  TGI: 4.76 µM
SW-620 colon
  GI50: 0.101 µM
  TGI: 0.283 µM
MDA-MB-435
  GI50: 1.63 µM
  TGI: 3.32 µM
ACHN renal
  GI50: 0.45 µM
  TGI: 1.61 µM
KM12 colon
  GI50: 1.64 µM
  TGI: 3.09 µM
IGROV1 ovarian
  GI50: 0.336 µM
  TGI: 1.55 µM
SF-295 CNS
  GI50: 1.79 µM
  TGI: 3.99 µM
HL-60(TB) leukemia
  GI50: 1.57 µM
  TGI: 5.09 µM
HS 578T breast
  GI50: 2.11 µM
  TGI: 5.17 µM
SK-MEL-2 melanoma
  GI50: 1.1 µM
  TGI: 2.61 µM
OVCAR-4 ovarian
  GI50: 1.05 µM
  TGI: 2.51 µM
SK-MEL-5 melanoma
  GI50: 0.712 µM
  TGI: 2.23 µM
NCI/ADR-RES ovarian
  GI50: 1.63 µM
  TGI: 3.73 µM
UACC-62 melanoma
  GI50: 1.37 µM
  TGI: 2.97 µM
UACC-257 melanoma
  GI50: 2.58 µM
  TGI: 6.8 µM
EKVX NSCLC
  GI50: 1.26 µM
  TGI: 2.59 µM
UO-31 renal
  GI50: 0.262 µM
  TGI: 1.12 µM
